Measurements published in publication PMC10641921, “Optimization of mTOR Inhibitors Using Property-Based Drug Design and Free–Wilson Analysis for Improved In Vivo Efficacy” (ACS Medicinal Chemistry Letters, 2023).
Values after ≈ are worked out from the molar mass of the structure shown. Where two headings read alike, the source gives them in different places.

How the values were obtained:
PI3Kα = PI3Kα enzyme selectivity (PI3Kα IC50 over mTOR IC50); assay type: biochemical; details: ratio of PI3Kα enzyme IC50 over mTOR enzyme IC50
[1] = molecular target: T1, cyclin-dependent kinase 9 (CDK9) (Homo sapiens, UniProt P50750); assay: Kinase panel (Invitrogen) at 1 μM, CDK9; assay type: biochemical
T1 construct: purchased Invitrogen
T1 sequence (P50750 whole entry): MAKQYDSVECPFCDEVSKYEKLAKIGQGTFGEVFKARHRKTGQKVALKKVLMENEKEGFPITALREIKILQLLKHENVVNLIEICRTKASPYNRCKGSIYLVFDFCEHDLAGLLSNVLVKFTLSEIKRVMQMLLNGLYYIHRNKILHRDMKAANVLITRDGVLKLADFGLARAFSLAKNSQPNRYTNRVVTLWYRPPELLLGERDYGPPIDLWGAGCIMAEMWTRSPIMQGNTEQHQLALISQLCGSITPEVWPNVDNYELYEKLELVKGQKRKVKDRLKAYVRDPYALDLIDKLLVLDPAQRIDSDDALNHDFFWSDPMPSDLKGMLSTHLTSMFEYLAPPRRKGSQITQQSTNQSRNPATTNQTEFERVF
T1 sequence (O60563 whole entry partner): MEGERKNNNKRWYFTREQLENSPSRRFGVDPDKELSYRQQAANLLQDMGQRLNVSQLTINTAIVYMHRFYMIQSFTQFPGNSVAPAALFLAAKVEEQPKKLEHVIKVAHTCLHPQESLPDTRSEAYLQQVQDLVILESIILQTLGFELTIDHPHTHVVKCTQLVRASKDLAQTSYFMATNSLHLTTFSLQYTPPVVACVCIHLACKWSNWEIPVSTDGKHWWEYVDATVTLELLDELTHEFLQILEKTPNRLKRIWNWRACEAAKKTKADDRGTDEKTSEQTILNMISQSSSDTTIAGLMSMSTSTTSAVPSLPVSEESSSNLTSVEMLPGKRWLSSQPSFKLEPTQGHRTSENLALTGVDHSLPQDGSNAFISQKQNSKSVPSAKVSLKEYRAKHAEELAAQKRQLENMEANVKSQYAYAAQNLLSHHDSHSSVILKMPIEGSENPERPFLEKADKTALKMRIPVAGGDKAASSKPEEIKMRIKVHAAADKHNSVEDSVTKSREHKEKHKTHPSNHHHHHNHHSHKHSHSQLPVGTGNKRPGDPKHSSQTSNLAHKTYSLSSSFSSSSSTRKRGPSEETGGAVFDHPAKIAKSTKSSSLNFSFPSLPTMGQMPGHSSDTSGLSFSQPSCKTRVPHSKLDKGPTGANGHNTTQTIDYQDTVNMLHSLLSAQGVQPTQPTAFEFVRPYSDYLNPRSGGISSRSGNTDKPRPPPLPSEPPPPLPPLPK

[2] = Human liver microsome intrinsic clearance; assay type: in vitro ADME
[3] = molecular target: human ether-a-go-go (hERG) (Homo sapiens, UniProt Q12809); assay: hERG patch clamp; assay type: cell-based
Chain of human ether-a-go-go (hERG) (Q12809 whole entry): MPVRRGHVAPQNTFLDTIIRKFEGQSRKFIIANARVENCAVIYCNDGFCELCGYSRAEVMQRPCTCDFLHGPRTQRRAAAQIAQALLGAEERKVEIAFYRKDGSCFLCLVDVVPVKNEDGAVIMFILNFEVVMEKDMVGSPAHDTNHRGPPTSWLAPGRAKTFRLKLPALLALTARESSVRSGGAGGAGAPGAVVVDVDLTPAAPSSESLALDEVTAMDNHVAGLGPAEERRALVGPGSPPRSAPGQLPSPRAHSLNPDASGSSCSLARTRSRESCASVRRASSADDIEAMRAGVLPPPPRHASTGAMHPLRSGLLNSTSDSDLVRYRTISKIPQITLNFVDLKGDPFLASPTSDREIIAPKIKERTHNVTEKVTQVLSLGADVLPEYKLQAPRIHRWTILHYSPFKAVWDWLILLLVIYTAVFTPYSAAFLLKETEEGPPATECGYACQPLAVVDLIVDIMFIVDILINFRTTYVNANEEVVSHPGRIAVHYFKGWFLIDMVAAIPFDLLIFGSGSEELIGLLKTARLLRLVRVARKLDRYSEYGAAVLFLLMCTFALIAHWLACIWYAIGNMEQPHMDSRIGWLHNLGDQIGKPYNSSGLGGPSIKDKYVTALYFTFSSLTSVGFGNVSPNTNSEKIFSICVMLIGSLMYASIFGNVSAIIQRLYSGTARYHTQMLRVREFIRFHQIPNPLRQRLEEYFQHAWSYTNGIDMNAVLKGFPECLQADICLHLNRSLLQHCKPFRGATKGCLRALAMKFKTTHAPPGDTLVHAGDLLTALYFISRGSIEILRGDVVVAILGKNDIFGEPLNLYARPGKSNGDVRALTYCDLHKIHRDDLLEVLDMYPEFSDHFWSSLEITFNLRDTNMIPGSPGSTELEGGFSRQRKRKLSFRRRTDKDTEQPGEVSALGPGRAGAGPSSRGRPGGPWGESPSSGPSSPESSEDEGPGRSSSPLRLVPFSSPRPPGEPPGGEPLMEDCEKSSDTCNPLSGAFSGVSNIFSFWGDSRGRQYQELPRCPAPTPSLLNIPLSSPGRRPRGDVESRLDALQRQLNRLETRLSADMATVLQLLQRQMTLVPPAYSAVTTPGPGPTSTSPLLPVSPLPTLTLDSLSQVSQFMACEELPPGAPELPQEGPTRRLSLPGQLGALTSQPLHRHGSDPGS

[4] = tested on: interleukin-1 receptor-associated kinase 4 (IRAK1); assay: Kinase panel (Invitrogen) at 1 μM, IRAK1; assay type: biochemical
CYP2C8 = molecular target: T2, CYP2C8 (Homo sapiens, UniProt P10632); assay: CYP inhibition, 2C8; assay type: in vitro ADME; details: most potently inhibited CYP isoform
T2 sequence (P10632 1-490): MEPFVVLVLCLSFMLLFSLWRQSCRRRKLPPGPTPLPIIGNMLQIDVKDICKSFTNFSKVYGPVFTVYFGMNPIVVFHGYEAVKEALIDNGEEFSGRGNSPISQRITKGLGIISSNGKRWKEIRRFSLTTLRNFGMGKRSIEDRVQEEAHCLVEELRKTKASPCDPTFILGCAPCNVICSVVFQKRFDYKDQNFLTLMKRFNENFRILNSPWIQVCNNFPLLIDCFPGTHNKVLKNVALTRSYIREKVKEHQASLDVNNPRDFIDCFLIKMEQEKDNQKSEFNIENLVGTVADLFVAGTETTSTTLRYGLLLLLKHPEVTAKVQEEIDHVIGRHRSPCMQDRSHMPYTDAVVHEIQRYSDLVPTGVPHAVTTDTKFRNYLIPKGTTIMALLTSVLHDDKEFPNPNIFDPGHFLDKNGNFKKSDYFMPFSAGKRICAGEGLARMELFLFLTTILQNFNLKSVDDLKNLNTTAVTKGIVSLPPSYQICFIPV

[5] = Ames test with and without S9; assay type: cell-based; details: with and without S9 activation
PI3Kγ = PI3Kγ selectivity; assay type: biochemical
panel of 298 kinases = assay: Panel of 298 kinases (Invitrogen); assay type: biochemical; details: 298 kinases tested at 1 μM
PI3Kβ = PI3Kβ selectivity; assay type: biochemical
PI3Kδ = PI3Kδ selectivity; assay type: biochemical
DNA-PK = molecular target: T3, DNA-PK (Homo sapiens, UniProt P78527); assay: DNA-PK inhibition (Invitrogen); assay type: biochemical
T3 construct: purchased Invitrogen

[6] = tested on: pS6K-T389 in PC-3 cells (TORC1); assay: Cellular pS6K-T389 assay in PC-3 cells (TORC1 activity); assay type: cell-based; details: Homo sapiens, read-out: pS6K-T389 cell IC50
From the text: Our previously reported inhibitor 1 (Figure 1) was potent against mTOR and selective against the off-target PI3Kα.[10]−[12] The target product profile for 1 and the next-generation analogs described here was for a dual inhibitor against both TORC1 and TORC2. […] We undertook a campaign to identify analogs that had improved prospects for a lower efficacious dose while retaining the favorable selectivity and safety profile of compound 1.

Thermodynamic solubility = assay type: physicochemical
mouse xenograft models = assay: Mouse xenograft models (earlier efficacy of lead 1); assay type: in vivo; details: 10 and 30 mpk
[7] = molecular target: T4, FRAP1 (mTOR) recombinant protein (Homo sapiens, UniProt P42345); assay: mTOR kinase inhibition assay (TR-FRET, GFP-4E-BP1); assay type: biochemical; details: enzyme
T4 construct: purchased Invitrogen (Carlsbad, CA, US)
T4 sequence (P42345 1360-2549 limits assumed): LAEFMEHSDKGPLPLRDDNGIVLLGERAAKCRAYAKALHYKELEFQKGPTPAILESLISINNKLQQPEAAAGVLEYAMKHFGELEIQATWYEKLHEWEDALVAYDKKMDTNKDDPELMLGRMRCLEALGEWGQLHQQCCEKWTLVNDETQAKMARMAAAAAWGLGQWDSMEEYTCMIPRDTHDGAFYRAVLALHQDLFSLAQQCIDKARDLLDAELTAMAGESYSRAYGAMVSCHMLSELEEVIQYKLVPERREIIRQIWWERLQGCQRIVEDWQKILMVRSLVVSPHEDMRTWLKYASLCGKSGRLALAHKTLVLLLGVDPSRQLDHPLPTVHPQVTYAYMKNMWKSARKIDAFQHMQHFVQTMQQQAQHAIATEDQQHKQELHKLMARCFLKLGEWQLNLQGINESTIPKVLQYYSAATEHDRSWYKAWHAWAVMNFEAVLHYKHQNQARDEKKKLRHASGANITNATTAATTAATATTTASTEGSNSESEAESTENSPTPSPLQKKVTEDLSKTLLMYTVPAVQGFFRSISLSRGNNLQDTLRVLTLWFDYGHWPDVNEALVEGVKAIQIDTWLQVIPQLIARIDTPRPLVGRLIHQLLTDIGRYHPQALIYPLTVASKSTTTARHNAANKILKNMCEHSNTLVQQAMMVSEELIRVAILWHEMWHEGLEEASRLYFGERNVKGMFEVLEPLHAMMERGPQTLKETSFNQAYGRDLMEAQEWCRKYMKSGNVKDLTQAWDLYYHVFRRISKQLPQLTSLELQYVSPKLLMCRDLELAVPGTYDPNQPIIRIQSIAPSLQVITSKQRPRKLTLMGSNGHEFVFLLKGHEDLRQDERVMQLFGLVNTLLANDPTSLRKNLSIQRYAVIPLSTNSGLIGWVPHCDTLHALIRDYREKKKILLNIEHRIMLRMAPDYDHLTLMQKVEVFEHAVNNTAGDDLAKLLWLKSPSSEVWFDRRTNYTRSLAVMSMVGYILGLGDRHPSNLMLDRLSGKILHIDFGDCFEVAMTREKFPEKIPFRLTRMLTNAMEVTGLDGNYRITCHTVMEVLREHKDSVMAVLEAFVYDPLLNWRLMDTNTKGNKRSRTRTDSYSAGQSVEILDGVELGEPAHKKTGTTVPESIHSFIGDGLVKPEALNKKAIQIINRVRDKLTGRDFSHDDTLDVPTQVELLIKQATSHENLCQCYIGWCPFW
Procedure: FRAP1 (mTOR) recombinant protein and GFP-4E-BP1 were purchased from Invitrogen (Carlsbad, CA, US).
The kinase activity assay was conducted in 50 mM Hepes buffer containing 10 mM MgCl2, 0.01% Brij, 0.2 mM EDTA, 2 mM DTT and 1% DMSO (after compound addition) at pH 7.3.
The IC50 value for each compound was determined in the presence of compound (various concentrations, from 0 to 10 μM) and a fixed amount of ATP (50 μM, final concentration), substrate GFP-4E-BP1 (400 nM, final concentration). The enzymatic reaction was initiated by adding FRAP1 (mTOR) (2 nM, final concentration). The assay was conducted at room temperature (~22 °C). After 30 min, the enzymatic reaction was stopped using Tb-anti-p4E-BP1 (2 nM final concentration, Invitrogen) and EDTA (20 mM final concentration, Sigma) in TR-FRET dilution buffer provided by Invitrogen. All the reagents were dispensed using a Multidrop Combi reagent dispenser (ThermoFisher Scientific, Waltham, […]
The release of product was detected using a BMG PHERAstar plate reader (BMG LABTECH, Ortenberg, Germany) and the Lantha Screen module (337 nm excitation wavelength) and measuring the ratio of fluorescence 520/490 nm (emission wavelengths). Experimental data was fitted using Eq. (1): […]

[8] = pH 1.2, read-out: Thermodynamic solubility at pH 1.2
[9] = pH 6.8, read-out: Thermodynamic solubility at pH 6.8

Row | Compound | PI3Ka sel. (PI3Kα) | PI3Kα Sel (PI3Kα; Table 2, unit not given) | inhibition at 1 µM [1] | HLM Clint ([2]; apparent intrinsic clearance, scaled) | IC50 [3] | IRAK1 inhibition [4] | IC50 (CYP2C8) | Ames test [5] | Selectivity against PI3Kγ (PI3Kγ) | Kinase panel selectivity (panel of 298 kinases) | Selectivity against PI3Kβ (PI3Kβ) | Selectivity against PI3Kδ (PI3Kδ) | inhibition at 1 µM (DNA-PK) | IC50 [6] | solubility thermodynamic (Thermodynamic solubility; [8]) | solubility thermodynamic (Thermodynamic solubility; [9]) | PI3Kα Sel (PI3Kα) | CLint scaled ([2]; human, liver microsomes, Figure 1 profile, read-out: HLM Clint) | In vivo efficacy (mouse xenograft models) | IC50 [7]
1 | C[C@@]12COCCN1c1nc(-c3cccc4[nH]ccc34)ncc1N([C@H]1CC[C@H](O)CC1)C2=O [14c] | 240 × | 240 | 34% | 6 mL min^–1 kg^–1 | > 40000 nM | 22% | 21000 nM | negative | 180 × | only two had inhibition >20% | 180 × | 6 × | 13% | 6 nM | 3960 µM (≈ 1720 µg/mL) | 6 µM (≈ 2.6 µg/mL) | – | – | – | –
2 | CC(F)(F)CN1C(=O)[C@]2(C)COCCN2c2nc(-c3ccc(NC(=O)NC4CC4)cc3)ncc21 [compound 1] | – | – | – | – | – | – | 7000 nM | – | – | – | – | – | – | 49 nM | 340 µM (≈ 161 µg/mL) | 0.6 µM (≈ 0.283 µg/mL) | 54 x | 10 mL/min/kg | significant in vivo efficacy | 12 nM
